Data as given in US8722376B2, “Firefly luciferase” (Olympus Corporation, priority 2011, dated 2014).

Target: T1, GL3 (luciferase derived from a known firefly) (Photinus pyralis, UniProt P08659, K549A/L550V/N119G/N50D/S548I)
T1 construct: measured as purified protein in a similar manner to SP1
Assay: Km of GL3 luciferase (luminescence kinetic analysis)
Type: biochemical
Conditions: read-out: Km for ATP; 0.1 M Tris-HCl (pH 8.0), D-luciferin, MgSO4; measured in a similar manner

T1 sequence (P08659 whole entry N50D/N119G/S548I/K549A/L550V): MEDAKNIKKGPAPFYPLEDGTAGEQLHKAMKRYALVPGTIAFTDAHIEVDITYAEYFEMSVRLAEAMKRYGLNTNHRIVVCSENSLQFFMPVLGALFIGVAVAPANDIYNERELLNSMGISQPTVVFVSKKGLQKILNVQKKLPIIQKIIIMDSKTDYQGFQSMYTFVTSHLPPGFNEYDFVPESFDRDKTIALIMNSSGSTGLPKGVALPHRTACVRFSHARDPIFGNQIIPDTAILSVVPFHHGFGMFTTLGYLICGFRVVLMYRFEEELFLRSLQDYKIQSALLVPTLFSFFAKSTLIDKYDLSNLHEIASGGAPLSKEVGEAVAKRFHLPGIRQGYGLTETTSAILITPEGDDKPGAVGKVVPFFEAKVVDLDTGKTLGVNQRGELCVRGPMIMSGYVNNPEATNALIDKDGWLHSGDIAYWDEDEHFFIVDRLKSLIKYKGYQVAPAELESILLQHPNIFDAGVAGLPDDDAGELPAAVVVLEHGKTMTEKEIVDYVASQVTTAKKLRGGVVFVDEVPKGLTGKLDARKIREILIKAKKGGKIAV

Compound `Nc1ncnc2c1ncn2[C@@H]1O[C@H](COP(=O)(O)OP(=O)(O)OP(=O)(O)O)[C@@H](O)[C@H]1O` [ATP] has a Km of 71.3 µM.
